How the values were obtained:
KRAS G12D = KRAS G12D (Homo sapiens (Human), UniProt P01116, G12D); experiment: KRAS G12D LoEnz Biochemical Assay, BODIPY-GDP Exchange TR-FRET (SOS1-mediated nucleotide exchange); details: read-out: KRas (G12D) GDP HTRF IC50
KRAS WT = KRAS WT (Homo sapiens (Human), UniProt P01116); experiment: KRAS WT Biochemical Assay, BODIPY-GDP Exchange TR-FRET (Example 501; 3 nM KRAS WT, 3 nM SOS1, 60-minute incubation); details: read-out: KRas HTRF IC50
Summary of the method: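 SOS1-mediated exchange assay: 3 nM biotin-KRAS WT with terbium-streptavidin, started with 3 nM SOS1 and 300 nM BODIPY-GDP, HEPES pH 7.5 with MgCl2. TR-FRET (520/490 nm) read after 60 min; normalized to DMSO and full-inhibition control, IC50 from 4-parameter Hill fit.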

Sequence of KRAS G12D (P01116-2 other isoform, or with tags, fused parts or gaps G12D): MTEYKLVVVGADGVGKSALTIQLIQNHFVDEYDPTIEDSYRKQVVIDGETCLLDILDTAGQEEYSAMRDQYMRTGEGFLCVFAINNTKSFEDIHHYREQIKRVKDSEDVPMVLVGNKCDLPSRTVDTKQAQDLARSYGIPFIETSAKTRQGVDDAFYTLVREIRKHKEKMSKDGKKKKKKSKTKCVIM
Sequence of KRAS WT (P01116-2 other isoform, or with tags, fused parts or gaps): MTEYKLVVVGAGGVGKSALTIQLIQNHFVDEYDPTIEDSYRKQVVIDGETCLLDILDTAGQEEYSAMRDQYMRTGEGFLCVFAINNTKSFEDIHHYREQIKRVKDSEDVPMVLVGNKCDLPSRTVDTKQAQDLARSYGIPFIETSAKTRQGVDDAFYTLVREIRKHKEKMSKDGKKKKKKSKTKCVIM

Row | SMILES | IC50 (KRAS G12D) [nM] | IC50 (KRAS WT) [nM]
1 | Cc1nc(N)cc(-c2nc3c4c(nc(OC[C@@]56CCCN5C[C@H](F)C6)nc4c2F)N2C[C@H]4CC[C@H](N4)[C@H]2[C@H](C)O3)c1C(F)(F)F [Compound 215, 4-((5S,5aS,6S,9R)-1-Fluoro-12-(((2R,7aS)-2-fluorotetrahydro-1H-pyrrolizin-7°(5H)-yl)methoxy)-5-methyl-5°,6,7,8,9,10-hexahydro-5H-4-oxa-3,10°,11,13,14-pentaaza-6,9-methanonaphtho[1,8-ab]heptalen-2-yl)-6-methyl-5-(trifluoromethyl)pyridin-2-amine] | 0.21 | 7.1
2 | Cc1nc(N)cc(-c2nc3c4c(nc(OC[C@]56CCCN5CC(F)(F)C6)nc4c2F)N2C[C@H]4CC[C@H](N4)[C@H]2[C@H](C)O3)c1C(F)(F)F [Compound 217, 4-((5S,5aS,6S,9R)-12-(((R)-2,2-difluorotetrahydro-1H-pyrrolizin-7a(5H)-yl)methoxy)-1-fluoro-5-methyl-5a,6,7,8,9,10-hexahydro-5H-4-oxa-3,10a,11,13,14-pentaaza-6,9-methanonaphtho[1,8-ab]heptalen-2-yl)-6-methyl-5-(trifluoromethyl)pyridin-2-amine] | 3.39 | 242
3 | Cc1nc(N)cc(-c2nc3c4c(nc(OCC5(CN6C[C@@H](C)O[C@@H](C)C6)CC5)nc4c2F)N2C[C@H]4CC[C@H](N4)[C@H]2[C@H](C)O3)c1C(F)(F)F [Compound 218, 4-((5S,5aS,6S,9R)-12-((1-(((2R,6S)-2,6-Dimethylmorpholino)methyl)cyclopropyl)methoxy)-1-fluoro-5-methyl-5a,6,7,8,9,10-hexahydro-5H-4-oxa-3,10a,11,13,14-pentaaza-6,9-methanonaphtho[1,8-ab]heptalen-2-yl)-6-methyl-5-(trifluoromethyl)pyridin-2-amine] | 0.29 | 14.1
4 | Cc1nc(N)c(F)c(-c2nc3c4c(nc(OCC5(CN6CCOCC6)CC5)nc4c2F)N2C[C@H]4CC[C@H](N4)[C@H]2[C@H](C)O3)c1C(F)(F)F [Compound 219, 3-Fluoro-4-((5S,5aS,6S,9R)-1-fluoro-5-methyl-12-((1-(morpholinomethyl)cyclopropyl)methoxy)-5a,6,7,8,9,10-hexahydro-5H-4-oxa-3,10a,11,13,14-pentaaza-6,9-methanonaphtho[1,8-ab]heptalen-2-yl)-6-methyl-5-(trifluoromethyl)pyridin-2-amine] | 0.46 | 47.3
5 | Cc1nc(N)c(F)c(-c2nc3c4c(nc(OCC56CCN5CC(F)(F)C6)nc4c2F)N2C[C@H]4CC[C@H](N4)[C@H]2[C@H](C)O3)c1C(F)(F)F (stereo partly drawn) [Compound 220, 4-((5S,5aS,6S,9R)-12-((3,3-Difluoro-1-azabicyclo[3.2.0]heptan-5-yl)methoxy)-1-fluoro-5-methyl-5a,6,7,8,9,10-hexahydro-5H-4-oxa-3,10a,11,13,14-pentaaza-6,9-methanonaphtho[1,8-ab]heptalene-2-yl)-3-fluoro-6-methyl-5-(trifluoromethyl)pyridin-2-amine] | 0.92 | 149
6 | Cc1nc(N)c(F)c(-c2nc3c4c(nc(OCC5(CN6C[C@@H]7C[C@H]6CO7)CC5)nc4c2F)N2C[C@H]4CC[C@H](N4)[C@H]2[C@H](C)O3)c1C(F)(F)F [Compound 222, 4-((5S,5aS,6S,9R)-12-((1-(((1S,4S)-2-Oxa-5-azabicyclo[2.2.1]heptan-5-yl)methyl)cyclopropyl)methoxy)-1-fluoro-5-methyl-5a,6,7,8,9,10-hexahydro-5H-4-oxa-3,10a,11,13,14-pentaaza-6,9-methanonaphtho[1,8-ab]heptalene-2-yl)-3-fluoro-6-methyl-5-(trifluoromethyl)pyridin-2-amine] | 3.39 | 45.7
7 | Cc1nc(N)c(F)c(-c2nc3c4c(nc(OCC5(CN6C[C@H]7C[C@@H]6CO7)CC5)nc4c2F)N2C[C@H]4CC[C@H](N4)[C@H]2[C@H](C)O3)c1C(F)(F)F [Compound 223, 4-((5S,5aS,6S,9R)-12-((1-(((1R,4R)-2-Oxa-5-azabicyclo[2.2.1]heptan-5-yl)methyl)cyclopropyl)methoxy)-1-fluoro-5-methyl-5a,6,7,8,9,10-hexahydro-5H-4-oxa-3,10a,11,13,14-pentaaza-6,9-methanonaphtho[1,8-ab]heptalene-2-yl)-3-fluoro-6-methyl-5-(trifluoromethyl)pyridin-2-amine] | 3.39 | 51.3
8 | Cc1c(F)c(N)c(F)c(-c2nc3c4c(nc(OCC5(CN6CCOCC6)CC5)nc4c2F)N2C[C@H]4CC[C@H](N4)[C@H]2[C@H](C)O3)c1C(F)(F)F [Compound 224, 2,6-Difluoro-3-((5S,5aS,6S,9R)-1-fluoro-5-methyl-12-((1-(morpholinomethyl)cyclopropyl)methoxy)-5a,6,7,8,9,10-hexahydro-5H-4-oxa-3,10a,11,13,14-pentaaza-6,9-methanonaphtho[1,8-ab]heptalen-2-yl)-5-methyl-4-(trifluoromethyl)aniline] | 0.18 | 12
9 | Cc1c(F)c(N)c(F)c(-c2nc3c4c(nc(OC[C@@]56CCCN5CC5(CC5(F)F)C6)nc4c2F)N2C[C@H]4CC[C@H](N4)[C@H]2[C@H](C)O3)c1C(F)(F)F (stereo partly drawn) [Compound 225, 3-((5S,5aS,6S,9R)-12-(((7a′S)-2,2-Difluorodihydro-1′H,3′H-spiro[cyclopropane-1,2′-pyrrolizin]-7a′(5′H)-yl)methoxy)-1-fluoro-5-methyl-5a,6,7,8,9,10-hexahydro-5H-4-oxa-3,10a,11,13,14-pentaaza[6,9]methanonaphtho[1,8-ab]heptalene-2-yl)-2,6-difluoro-5-methyl-4-(trifluoromethyl)aniline] | 0.25 | 4.2
10 | Cc1cc(N)c(F)c(-c2nc3c4c(nc(OCC5(CN6CCOCC6)CC5)nc4c2F)N2C[C@H]4CC[C@H](N4)[C@H]2[C@H](C)O3)c1C(F)(F)F [Compound 226, 2-Fluoro-3-((5S,5aS,6S,9R)-1-fluoro-5-methyl-12-((1-(morpholinomethyl)cyclopropyl)methoxy)-5a,6,7,8,9,10-hexahydro-5H-4-oxa-3,10a,11,13,14-pentaaza-6,9-methanonaphtho[1,8-ab]heptalene-2-yl)-5-methyl-4-(trifluoromethyl)aniline] | 0.4 | 8.11
11 | Cc1cc(N)c(F)c(-c2nc3c4c(nc(OC[C@@]56CCCN5CC5(CC5(F)F)C6)nc4c2F)N2C[C@H]4CC[C@H](N4)[C@H]2[C@H](C)O3)c1C(F)(F)F (stereo partly drawn) [Compound 227, 3-((5S,5aS,6S,9R)-12-(((7a′S)-2,2-Difluorodihydro-1′H,3′H-spiro[cyclopropane-1,2′-pyrrolizin]-7a′(5′H)-yl)methoxy)-1-fluoro-5-methyl-5a,6,7,8,9,10-hexahydro-5H-4-oxa-3,10a,11,13,14-pentaaza[6,9]methanonaphtho[1,8-ab]heptalene-2-yl)-2-fluoro-5-methyl-4-(trifluoromethyl)aniline] | 0.21 | 0.938
12 | Cc1c(F)c(N)c(F)c(-c2nc3c4c(nc(OC[C@@H]5C[C@@H](F)CN5C)nc4c2F)N2C[C@H]4CC[C@H](N4)[C@H]2[C@H](C)O3)c1C(F)(F)F [Compound 228, 2,6-Difluoro-3-((5S,5aS,6S,9R)-1-fluoro-12-(((2S,4R)-4-fluoro-1-methylpyrrolidin-2-yl)methoxy)-5-methyl-5a,6,7,8,9,10-hexahydro-5H-4-oxa-3,10a,11,13,14-pentaaza-6,9-methanonaphtho[1,8-ab]heptalen-2-yl)-5-methyl-4-(trifluoromethyl)aniline] | 370 | 4880
